Experimental data from patent US20230310352A1, “NOVEL COMPOSITIONS AND METHODS FOR THE TREATMENT OF LUNG FIBROSIS” (LAURENT PHARMACEUTICALS INC., priority 2020, published 2023).
Entries after “also recorded” stand apart in the source; their conditions may differ.

What was measured:
[1] = system: VEGF; assay: Mouse model of LPS-induced acute respiratory distress syndrome, BALF VEGF; assay type: in vivo; conditions: inhaled fenretinide, LPS-induced ARDS mouse model
[2] = system: Normal human lung fibroblast cells (NHLF cells, ATCC CRL-7000); assay: α-SMA protein by ELISA after TGF-β1 exposure in NHLF; assay type: cell-based; conditions: TGF-β1 2 ng/mL + fenretinide 1, 2, 3, 4 μM, 3 days
Procedure: NHLF cells were incubated for 3 days at 37° C. and treated with TGF-β1 (2 ng/mL) or TGF-β1 (2 ng/mL)+fenretinide (1, 2, 3, 4 μM). At the end of the 3 day-treatment period, media was collected in identified tubes, centrifuged at 2,000×g for 20 minutes and stored at −80° C. Cells were collected using trypsin, transferred in identified tubes and centrifuged at 1,000×g for 5 minutes. Cells were then washed twice in phosphate buffered saline (PBS) 1X prior to be resuspended in ELISA lysis buffer. α-SMA protein contents were determined using Abcam ELISA detection kit (Ab240678). The experiment was performed in quadruplicate.

[3] = system: lung fibroblast-populated long microtissue; assay: Lung fibroblast-populated long microtissue, model of traction bronchiectasis; assay type: cell-based, human
Excerpt: In a fibrotic lung, traction bronchiectasis occurs when small bronchial openings dilate due to traction force exerted by the surrounding fibrotic tissue. To model this unique fibrosis feature of the lung, stress concentrations were patterned to induce the dilation of tissue openings in the engineered microtissues described in Example 2. In order to further increase local stress levels, rigid micropillars were designed to support the long microtissue. In order to experimentally model the mechanical process of traction bronchiectasis, lung fibroblast-populated long microtissue was induced to fibrosis using TGF-β1 treatment (5 ng/ml). Continuous TGF-β1 treatment for 6 days induced increased expression of α-SMA and pro-collagen type 1 across the entire microtissue, in addition to dilated tissue openings around the micropillars. These effects were absent in untreated conditions. To examine the effects of fenretinide (2 μM and 4 μM doses) in inhibiting traction bronchiectasis, fenretinide was co-administered with TGF-β1 at the beginning of long microtissue culture and remained for 6 days. The unique geometry of the long microtissue allows tissue opening (hole) formation around micropillars under elevated contractile force generated by the differentiated myofibroblasts, mimicking the traction bronchiectasis. […] FIG. 9 presents the quantified opening area/total tissue area ratio.

[4] = system: bleomycin-induced lung fibrosis; assay: Intratracheal bleomycin mouse model of pulmonary fibrosis (21-day model); assay type: in vivo, C57BL/6N mice; conditions: Day 21, oral once daily for 14 days
Procedure: Oral administration of a solid amorphous dispersion formulation of fenretinide (LAU-7b SDI) was evaluated in treating and/or reducing pulmonary fibrosis in mouse model of lung fibrosis induced via a single intratracheal administration of bleomycin followed by vehicle, fenretinide (LAU-7b SDI) or pirfenidone oral treatment for 21 days. The LAU-7b SDI formulation was obtained by spray drying and contains fenretinide in amorphous form in a solid dispersion comprising a matrix polymer, based on the following formula: 40% fenretinide, 59.6% povidone (KOLLIDON® 30), 0.24% butylated hydroxyanisole (BHA) and 0.16% butylated hydroxytoluene (BHT).
Male C57BL/6N mice from Charles River Laboratories, 10-12 weeks of age, weighing around 20-25 g, at the time of their enrolment, received 50 μL of bleomycin sulfate (2.0 mg/kg) by a single intratracheal instillation on Day 1 of the study. The Sham group received an equivalent volume of 0.9% saline. On Day 7 post-bleomycin instillation the animals were randomized in groups of 8 animals based on their body weight loss and Penh value. Oral dosing by gavage (10 mL/kg) with the vehicle (sham and BLM Control groups), LAU-7b SDI (fenretinide at 5 mg/kg and 10 mg/kg dose), and the reference compound (pirfenidone 100 mg/kg) were initiated once daily starting from Day 7 to Day 21. Two hours following the last dose on Day 21 all the mice were sacrificed, the lungs of each mouse were harvested, flushed with 0.9% NaCl and inflated with 10% neutral buffered formalin solution. After embedding and mounting of the lung tissue (transversal slices of 5 μm thickness), the histology slides were stained with hematoxylin/eosin for the Ashcroft score evaluation by a treatment-blinded pathologist, and with Sirius red staining for automated fibrosis quantification (Biocellvia, France).
As in Example 4, the key endpoints evaluated in this study were the Ashcroft score, pulmonary foci and collagen content obtained by histological assessment of the lung tissue at the end of the study. Statistical analysis was made on normally distributed data by one-way ANOVA followed by multiple comparisons (Fisher's LSD post hoc test) to assess the difference between the groups, using Graph Pad Prism Software version 8.0 (San Diego, CA, USA). Differences were considered statistically significant when P values were p<0.05 (*), or p<0.01 (**) or p<0.001 (***). The Ashcroft score was assessed in the lung tissue by treatment-blinded pathologist on the H&E stained histology slides (2 cross sections/animal) and using the modified Ashcroft scale. Briefly, each lung section was scanned at a magnification of ×100 (H&E staining), and graded from 0 (normal lung) to 8 (total fibrotic obliteration of the field). The mean value of the grades obtained for each of the two sections was used as the Ashcroft score.
Pulmonary foci (fibrotic tissue) and lung collagen content were quantified in the Sirius red stained lung tissue histology sections by high resolution, automated digital image analysis (Biocellvia, France) on Day 21 after lung fibrosis induction by bleomycin (BLM) instillation and following a 14-day oral gavage treatment with LAU-7b SDI (fenretinide, two doses), pirfenidone (reference drug) or vehicle only. Full field analysis of 2 lung sections per animal was conducted and the results were expressed as a mean percentage of total surface. This test is considered highly reliable, offering reproducible and observer-independent assessment of quantitative analysis of fibrosis.

[5] = fenretinide 5 mg/kg (as LAU-7b SDI)
[6] = fenretinide 10 mg/kg (as LAU-7b SDI), pirfenidone 100 mg/kg

Structure (SMILES): CC1=C(/C=C/C(C)=C/C=C/C(C)=C/C(=O)Nc2ccc(O)cc2)C(C)(C)CCC1 [fenretinide, 4-hydroxyphenyl retinamide]
- bronchoalveolar lavage fluid (BALF) VEGF [1]: significant increase
- induction of fibrotic marker α-SMA protein levels (ELISA) [2]: attenuate and, at certain doses, completely abolish; also recorded: attenuates in a dose-dependent manner; also recorded: dose-dependent attenuation
- expression level of α-SMA in the long microtissue ([3]; TGF-β1 5 ng/ml, 6 days, 4 μM): strongly inhibited
- pro-collagen expression in the long microtissue ([3]; TGF-β1 5 ng/ml, 6 days, 4 μM): a similar trend
- tissue openings around micropillars (traction bronchiectasis) ([3]; co-administered with TGF-β1 5 ng/ml for 6 days, 2 μM and 4 μM): tissue openings remained small
- Ashcroft score vs BLM control [4, 5]: also reduced
- percentage of collagen content, automated Sirius red analysis, vs BLM control [4, 5]: did not induce statistically significant reduction
- percentage of pulmonary foci, automated Sirius red analysis, vs BLM control [4, 5]: did not induce statistically significant reduction
- Ashcroft score vs BLM control [4, 6]: reduced significantly
- percentage of collagen content, automated Sirius red analysis, vs BLM control [4, 6]: reduced significantly (p<0.05)
- percentage of pulmonary foci, automated Sirius red analysis, vs BLM control [4, 6]: reduced significantly (p<0.05)
